One molecule from patent publication US20230416196A1, “DIMER OF BIGUANIDINES AND THEIR THERAPEUTIC USES” (INSTITUT CURIE, priority 2020, published 2023) can be followed below.

The structures appear in SMILES notation.

Series [1] deals with biopsy-derived organoids of PDAC. As to the kind of experiment: Chemograms on biopsy-derived organoids of pancreatic ductal adenocarcinoma. It counts as cell-based, human. The following applies: 72 h, CellTiter-Glo 3D; FIG. 9. From the text: Biopsy-derived pancreatic organoid (BDPO) generation. BDPOs were obtained from endoscopic ultrasound-guided fine-needle aspirations (EUS-FNA) from patients with PDAC included under the PaCaOmics clinical trial (ClinicalTrials.gov: NCT01692873) after approval by the Paoli-Calmettes hospital ethics committee and following patient informed consent. Cultures were established as previously described. Briefly, PDAC biopsies were slightly digested with the Tumor Dissociation Kit (Miltenyi Biotec) at 37° C. for 5 minutes. The pancreatic tissue slurry was transferred into a tissue strainer 100 μm and was placed into 12-well plates coated with 150 μL GFR matrigel (Corning, Boulogne-Billancourt, France). […]
Chemograms on BDPO. […] 24 hours later, one plate was used directly for RNA preparation (Time 0 transcriptome) and on the other the medium was supplemented with increasing concentrations of each drug, 72 hours later cell viability was measured with CellTiter-Glo 3D (Promega) reagent quantified using the plate reader Tristar LB941 (Berthold Technologies). Values were normalized and expressed as the percentage of the control (vehicle), which represents 100% of normalized fluorescence. […]
(ATP-based viability assays read luminescence as a measure of living cells.)

Another series relates to lymphocytes (CD4, CD8). As to the kind of experiment: Activation of CD4 and CD8 lymphocytes (CD25, CD69 flow cytometry). The following applies: LCC-12 10 μM, 48 h, CD3/CD28 activation; FIG. 6A-B. It counts as cell-based, human. As to the method:
CD4 Lymphocytes. Peripheral blood samples were collected from healthy donors (Etablissement Français du Sang). CD4 lymphocytes were isolated by negative magnetic sorting using microbeads according to the manufacturer's instructions (Miltenyi Biotec, 130-096-533) and cultured in RPM11640 supplemented with glutamine and 10% fetal bovine serum. CD4 lymphocytes were activated for 48 h using CD3/CD28 antibodies (2.5 μg/mL), in presence of LCC-12 (10 μM). The activation status of the lymphocytes was assessed by measuring CD25 and CD69 surface markers by flow cytometry.
CD8 Lymphocytes. Peripheral blood samples were collected from healthy donors (Etablissement Français du Sang). CD8 lymphocytes were isolated by negative magnetic sorting using microbeads according to the manufacturer's instructions (Miltenyi Biotec, 130-096-495) and cultured in RPM11640 supplemented with glutamine and 10% fetal bovine serum. CD8 lymphocytes were activated 48 h using CD3/CD28 antibodies (2.5 μg/mL), in presence of LCC-12 (10 μM). The activation status of the lymphocytes was assessed by measuring CD25 and CD69 surface markers by flow cytometry.

A further series in a line: Maximum tolerated dose. The conditions noted are these: stated relative to the 0.3 mg/kg/day dose used.

Regarding `N=C(N)NC(=N)NCCCCCCCCCCCCNC(=N)NC(=N)N` [LCC-12, lipophilic copper clamp C12], the “efficacy (IC50) on biopsy-derived organoids of PDAC” value in series [1] is recorded as “low micromolar range”. Besides, the activation of lymphocytes result with lymphocytes (CD4, CD8) is on record as “decreases the activation”. The “maximum tolerated dose (MTD)” value in “Maximum tolerated dose” is 0.3 mg/kg/day, a dose 10 times lower than the maximum tolerated dose.
